# “And” between values parts separate entries of the source, which are not always exact repeats. Equal entries are not always repeated. Where two headings read alike, the source gives them in different places.
# Key:
# [1] = system: P. berghei-ANKA-GFP-LucCON liver stage parasites in HepG2-A16-CD81EGFP cells; experiment: P. berghei liver stage Pb-Luc assay, Method 1 (UCSD, 1536-well); as to Pb-Luc signal, 1 uM, repeat 1: reference of the scale not given here; as to Pb-Luc signal, 1 uM, repeat 2: reference of the scale not given here; as to Pb-Luc signal, 1 uM, repeat 3: reference of the scale not given here; as to Pb-Luc signal, 3 uM, repeat 1: reference of the scale not given here; as to Pb-Luc signal, 3 uM, repeat 2: reference of the scale not given here; as to Pb-Luc signal, 3 uM, repeat 3: reference of the scale not given here; assay type: cell-based, Plasmodium berghei; conditions: for Max Resp (signal direction of the dose response) / AC50 / Log AC50 (M): Method 1; for Max Resp (signal direction of the dose response): Decrease = decreasing P. berghei viability with dose, Increase = increasing signal, Inactive = no dose response; for activity at 1 µM / activity at 3 µM: 48 h, average of 2 wells, 1536-well plate; for activity at 1 µM: nominal 1 uM (10 mM stock), […] for 15 mM, 1.2 uM for 12 mM, 2 uM for 20 mM stock; for activity at 3 µM: nominal 3 uM (10 mM stock), 4.5 uM for 15 mM, 3.6 uM for 12 mM, 6 uM for 20 mM stock
# [2] = system: luciferase-expressing P. berghei liver stage parasites in HepG2 cells; experiment: Inhibition of liver-stage development assay (ILSDA), Method 2 (WRAIR, 96-well); assay type: cell-based, Plasmodium berghei; conditions: for Max Resp (signal direction of the dose response): Decrease = decreasing P. berghei viability with dose, Increase = increasing signal, Inactive = no dose response; for Log AC50 (M): log10 of molar AC50 from Hill fit
# [3] = system: Plasmodium falciparum Dd2 asexual blood stage parasites; experiment: microbe, parasite or virus in culture; set-up: species or system Plasmodium falciparum Dd2 in human erythrocytes; single determination (one 11-point concentration-response curve); conditions: Plasmodium falciparum, DD2, Erythrocyte, 72 h
# [4] = system: T1, Plasmodium falciparum Dd2-attB (parental line), asexual blood stages; experiment: microbe, parasite or virus in culture; set-up: replicate k of 3 (each line is one of three independent assays; the three lines of one compound and parasite line follow each other); conditions: n = 1; for Individual replicates / Log AC50 (M): 72 h; for AC50: Plasmodium falciparum, DD2, 72 h, read-out: Individual replicates / Log AC50 (converted)
# T1 construct: Dd2-attB, the isogenic parental line
# In short: (§1)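 Only some compounds were profiled here. Each was assayed three independent times against the Dd2-attB parent and its yeast-DHODH-overexpressing derivative.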
# [5] = system: T2, Plasmodium falciparum Dd2-attB-ScDHODH (transgenic line expressing yeast DHODH), asexual blood stages; experiment: organism not typed; set-up: replicate k of 3 (each line is one of three independent assays; the three lines of one compound and parasite line follow each other); conditions: 72 h, n = 1; for AC50: read-out: Individual replicates / Log AC50 (converted)
# T2 construct: Dd2-attB-ScDHODH, the transgenic line that expresses yeast DHODH
# In short: as §1
# [6] = system: HepG2-A16-CD81EGFP cells
# [7] = in vitro; conditions: human
# [8] = Hill fit, 50% of maximum activity response, read-out: AC50
# [9] = log10 of molar AC50 from Hill fit
# [10] = Plasmodium berghei, Hill fit, 50% of maximum activity response, read-out: AC50
# [11] = Plasmodium berghei, log10 of molar AC50 from Hill fit, read-out: Log AC50 (converted)
# [12] = Method 2, Hill fit, 50% of maximum activity response, read-out: AC50
# [13] = Plasmodium berghei, repeat 1, read-out: Pb-Luc signal, 1 uM, repeat 1
# [14] = Plasmodium berghei, repeat 2, read-out: Pb-Luc signal, 1 uM, repeat 2
# [15] = Plasmodium berghei, repeat 3, read-out: Pb-Luc signal, 1 uM, repeat 3
# [16] = Plasmodium berghei, repeat 1, read-out: Pb-Luc signal, 3 uM, repeat 1
# [17] = Plasmodium berghei, repeat 2, read-out: Pb-Luc signal, 3 uM, repeat 2
# [18] = Plasmodium berghei, repeat 3, read-out: Pb-Luc signal, 3 uM, repeat 3
# [19] = P. berghei liver stage, Method 2, dose response
# [20] = nominal 1 uM (10 mM stock), […] for 15 mM, 1.2 uM for 12 mM, 2 uM for 20 mM stock, average of 2 wells, repeat 2
# [21] = nominal 3 uM (10 mM stock), 4.5 uM for 15 mM, 3.6 uM for 12 mM, 6 uM for 20 mM stock, average of 2 wells, repeat 2
# [22] = HepG2-A16-CD81EGFP cells, uninfected
# [23] = Plasmodium berghei, HepG2, P. berghei liver stage, Method 2, dose response, read-out: AC50
# [24] = Plasmodium berghei, HepG2, P. berghei liver stage, Method 2, dose response, read-out: Log AC50 (converted)
Structure (SMILES),Max Resp (signal direction of the dose response) [1],"AC50 [1, 10] [µM]","AC50 [1, 11] [µM]",Max Resp (signal direction of the dose response) ([2]; Method 2),"AC50 [2, 12] [µM]",Log AC50 (M) ([2]; Method 2),AC50 ([3]; read-out: AC50) [µM],Individual replicates / Log AC50 (M) [4],AC50 [4] [µM],Individual replicates / Log AC50 (M) [5],"activity at 1 µM [1, 13] [%]","activity at 1 µM [1, 14] [%]","activity at 1 µM [1, 15] [%]","activity at 3 µM [1, 16] [%]","activity at 3 µM [1, 17] [%]","activity at 3 µM [1, 18] [%]","Activity direction (Decrease / Inactive) [2, 19]","HepG2 viability signal, 1 uM, repeat 2 [6, 20] [%]","viability at 48 h, 1 µM [7, 22] [%]","viability at 48 h, 3 µM [7, 22] [%]",other results
Cc1ccc(NC2=C(c3ccc(C(F)(F)F)cc3)C(=O)c3ccccc32)cc1F [NCGC00107266-01],Decrease,1.26,1.26,Decrease,0.079,-7.100,1.88,-6.2486 Log AC50 (M) and -6.2986 Log AC50 (M),0.399,-5.4986 Log AC50 (M) and -5.1986 Log AC50 (M) and -5.3986 Log AC50 (M),–,–,–,–,–,–,–,–,–,–,"AC50 [1, 8]: 1.41 µM; Log AC50 (M) [1, 9]: -5.850 M"
Cc1ccc(NC2=C(c3ccc(C(F)(F)F)cc3)C(=O)c3ccccc32)cc1C [NCGC00107300-01],Decrease,0.447,0.447,Decrease,0.398,-6.400,2.11,-5.7486 Log AC50 (M) and -5.5986 Log AC50 (M),1.59,-5.4986 Log AC50 (M) and -5.2486 Log AC50 (M),–,–,–,–,–,–,–,–,–,–,"AC50 [1, 8]: 0.794 µM; Log AC50 (M) [1, 9]: -6.100 M; AC50 [5]: 3.99 µM"
Cc1ccc(C)c(NC2=C(c3ccc(C(F)(F)F)cc3)C(=O)c3ccccc32)c1 [NCGC00107302-01],–,1.58,1.58,Decrease,0.501,-6.300,4.73,-5.6986 Log AC50 (M) and -5.7486 Log AC50 (M),1.13,-4.9986 Log AC50 (M) and -5.0486 Log AC50 (M),–,–,–,–,–,–,–,–,–,–,AC50 [5]: 7.97 µM
COc1ccc(NC2=C(c3ccc(C(F)(F)F)cc3)C(=O)c3ccccc32)cc1 [NCGC00107310-01],Decrease,1.78,1.78,Decrease,0.141,-6.850,2.11,-6.3486 Log AC50 (M) and -6.1486 Log AC50 (M) and -6.1986 Log AC50 (M),–,-5.7986 Log AC50 (M) and -5.8986 Log AC50 (M) (2×),–,–,–,–,–,–,–,–,–,–,–
Oc1ccc(CN2CC(CNc3ccccc3)C3(C2)CN(c2ccccc2)C3)cc1 (stereo not drawn) [NCGC00416032-01],–,1.41,1.41,–,–,–,0.611,-5.9373 Log AC50 (M) and -6.1873 Log AC50 (M),0.818,-5.6373 Log AC50 (M) and -5.9873 Log AC50 (M),52.9,59,77.5,5.3,6.04,8.95,Inactive,101.59,106,106,"HepG2 viability signal, 3 uM, repeat 2 [6, 21]: 99.28%"
COc1cc2c(cc1Oc1cccc(N(C)C)c1)NC(=O)C21CCN(c2cnccn2)CC1 [NCGC00416778-01],Inactive,–,–,–,–,–,1.5,–,–,–,86.6,95.1,107,35,40,53.9,Decrease,–,–,–,"AC50 [2, 23]: 1 µM; AC50 [2, 24]: 1 µM; HepG2 viability signal, 1 uM, repeat 2 ([6]; human, 48 h, 1 µM): 94.98%; HepG2 viability signal, 3 uM, repeat 2 ([6]; human, 48 h, 3 µM): 87.34%; viability at 48 h, 1 µM [7]: 101%; viability at 48 h, 3 µM [7]: 89.7%"
CCC(CC)c1cc([C@H]2CN3CC[C@H]2C[C@@H]3CNC(=O)COc2ccccc2)nc(-c2ccncc2)n1 [NCGC00420983-01],Decrease,–,–,–,–,–,1.5,–,–,–,55.4,47,38,33.3,38.2,41,Inactive,97.05,102,101,"viability at 48 h, 3 µM [7]: 101%"
Cc1cc(C)cc(C(=O)Nc2ccc3c(N4CCCC4)ncnc3c2)c1 [NCGC00425487-01],–,1,1,–,–,–,2.37,–,–,–,67.5,99.6,77.5,25.9,34.2,15.9,Decrease,92.65,89,27.1,"AC50 [2, 23]: 15.8 µM; AC50 [2, 24]: 15.8 µM; HepG2 viability signal, 3 uM, repeat 2 [6, 21]: 36.60%"
O=C(Nc1ccc2c(N3CCOCC3)ncnc2c1)c1cccc(Br)c1 [NCGC00425561-01],–,1.41,1.41,–,–,–,4.22,–,–,–,70.5,72.5,53.9,30.4,40.5,12.4,–,93.24,97.9,39.6,"Activity direction (Decrease / Inactive) [2]: Decrease; AC50 ([2]; Plasmodium berghei, HepG2): 31.6 µM; AC50 ([2]; Plasmodium berghei, HepG2, read-out: Log AC50 (converted)): 31.6 µM; HepG2 viability signal, 3 uM, repeat 2 [6, 21]: 58.93%"
Cc1ccccc1[S+](=O)([O-])N1CCCC(CCC(=O)NCCN(C)C2CCCCC2)C1 (stereo not drawn) [NCGC00425745-01],–,1.78,1.78,–,–,–,–,–,–,–,72,61,64.9,42,57.8,54.8,Decrease,–,112,109,"AC50 [2, 23]: 0.562 µM; AC50 [2, 24]: 0.562 µM; AC50 [3]: 8.41 µM; HepG2 viability signal, 1 uM, repeat 2 [6]: 108.18%; HepG2 viability signal, 3 uM, repeat 2 [6]: 103.93%"
CCCN1C(CC(C)C)=N[S+](=O)([O-])c2cc(NC(=O)c3ccccc3Cl)ccc21 [NCGC00473218-01],–,–,–,–,–,–,–,-5.5486 Log AC50 (M) and -5.3986 Log AC50 (M) and -5.1986 Log AC50 (M),–,-5.0486 Log AC50 (M),–,–,–,–,–,–,Inactive,–,–,–,AC50 [5]: 7.97 µM
